Assay results as given in patent publication US20220251569A1, “TREATMENT AND PREVENTION OF DISEASE MEDIATED BY WWP2” (National University of Singapore, priority 2019, published 2022).

Legend:
WWP2-N = target: T1, WWP2-N (Homo sapiens, UniProt O00308); assay: Octet RED binding assay to WWP2-N; settings: compound at 250 μM, binding measured over 120 seconds, Octet RED96e
T1 construct: GST; made in house
T1 sequence (O00308 1-335 limits assumed): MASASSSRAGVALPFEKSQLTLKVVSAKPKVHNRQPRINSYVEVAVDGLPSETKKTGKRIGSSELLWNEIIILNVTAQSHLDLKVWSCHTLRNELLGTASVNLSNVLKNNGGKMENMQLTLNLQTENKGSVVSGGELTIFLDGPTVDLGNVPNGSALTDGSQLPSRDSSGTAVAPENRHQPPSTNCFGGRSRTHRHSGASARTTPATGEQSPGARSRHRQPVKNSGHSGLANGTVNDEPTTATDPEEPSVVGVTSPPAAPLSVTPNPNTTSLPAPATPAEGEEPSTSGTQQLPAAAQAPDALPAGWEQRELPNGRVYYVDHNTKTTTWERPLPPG
Procedure: (§1) The WWP2 isoforms WWP2-FL, WWP2-N and WWP2-C were expressed as a GST fusion protein in bacteria and purified using glutathione sepharose 4B resin (GE Healthcare) according to the manufacturer's instructions. Expression and purity of the expressed WWP2 proteins was analysed by Coomassie Blue staining of the gel after separation by SDS-PAGE and western blotting (WB).
(§2) Binding assays were performed using the Octet RED96e System (FortéBio Inc., Menlo Park, Calif.). WWP2-FL, WWP2-N and WWP2-C proteins were biotinylated using NHS-PEO4-biotin (Pierce). Super-streptavidin (SSA) biosensors (FortéBio Inc., Menlo Park, Calif.) were coated in a solution containing 1 μM of biotinylated protein for 4 hours at 25° C. A duplicate set of sensors were incubated in assay buffer (1× kinetics buffer of ForteBio Inc.) with 5% DMSO without protein, for use as a background binding control. Both sets of sensors were blocked with a solution of 10 ug/ml Biocytin for 5 minutes at 25° C. A negative control of 5% DMSO was also used.
(§3) Binding of samples containing the different compounds (at a concentration of 250 μM) to coated and uncoated reference sensors was measured over 120 seconds. Analysis of the data was performed using a double reference subtraction (sample and sensor references) in the FortéBio data analysis software. […]

WWP2-C = target: T2, WWP2-C (Homo sapiens, UniProt O00308); assay: Octet RED binding assay to WWP2-C; settings: compound at 250 μM, binding measured over 120 seconds, Octet RED96e
T2 construct: GST; made in house
Procedure: as §1, §2, §3

[1] = system: primary renal fibroblasts; assay: Cellular fibrosis assay (ACTA2 immunostaining) in TGFβ1-stimulated primary renal fibroblasts; format: cell-based, mice; settings: compound 0.3 mM for 1 hour, then TGFβ1 stimulation 72 hours; fluorescence microscopy
Procedure: Primary renal fibroblasts were obtained from the renal cortex of mice. Minced renal cortex pieces (1-3 mm^3) were placed in 6 cm dishes with DMEM supplemented with 20% fetal bovine serum for less than 10 days to generate mice renal fibroblasts (P0), and passaged to P1 and P2 in DMEM supplemented with 10% fetal bovine serum for experiments. To mimic the in vivo activation of renal fibroblasts in fibrosis, cells were treated with human transforming growth factor-β1 (TGFβ1) (Sigma Aldrich, #T7039) at a concentration of 5 ng/μl for 72 hours.
To test the anti-fibrotic effect of candidate small-molecules, cells were treated with each compound (0.3 mM) for 1 hour, followed by stimulation with TGFβ1 before harvesting. After fixation with ice-cold acetone and blocking with 1% BSA for 30 min at RT, the slides were incubated with primary anti-smooth muscle a actin (ACTA2) antibody (ACTA2 is a widely recognised myofibroblast marker, indicating fibroblast activation) (Sigma-Aldrich, #A5228, 1:100) overnight at 4° C. Following washing steps, slides were incubated with Bovine Anti-Mouse IgG-CFL 488 secondary antibody (Santacruz Biotechnology, #sc-362256, 1:100) for 2 hours at RT. VectaShield Mounting Medium (Vector laboratories, #H-1200) with DAPI was used to stain the nuclei and the slides were covered by coverslip. Slides were imaged on Leica fluorescence microscope (Leica).

T2 sequence (O00308 440-870 limits assumed): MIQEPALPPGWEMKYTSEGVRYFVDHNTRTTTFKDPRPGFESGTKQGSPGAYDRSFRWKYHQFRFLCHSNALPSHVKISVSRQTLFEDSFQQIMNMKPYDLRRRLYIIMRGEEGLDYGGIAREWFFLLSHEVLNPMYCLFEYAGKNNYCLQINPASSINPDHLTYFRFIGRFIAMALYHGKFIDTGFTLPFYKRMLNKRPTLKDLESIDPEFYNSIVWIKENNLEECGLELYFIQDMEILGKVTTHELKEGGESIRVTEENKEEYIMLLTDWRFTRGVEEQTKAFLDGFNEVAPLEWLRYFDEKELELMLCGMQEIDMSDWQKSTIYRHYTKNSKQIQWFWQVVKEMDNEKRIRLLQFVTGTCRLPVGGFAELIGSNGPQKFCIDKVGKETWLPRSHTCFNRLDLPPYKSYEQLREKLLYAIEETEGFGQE

For `COc1ccc(-n2c(=O)c3c4c(sc3n(CC(=O)NCc3ccco3)c2=O)CCC4)c(OC)c1` [EP1, 2-[11-(2,4-dimethoxyphenyl)-10,12-dioxo-7-thia-9,11-diazatricyclo[6.4.0.02.6]dodeca-1(8),2(6)-dien-9-yl]-N-(furan-2-ylmethyl)acetamide], the “Binding level (nm) to WWP2 N isoform” value (WWP2-N) was 0.1253 nm, the “Binding level (nm) to WWP2 C isoform” value (WWP2-C) was 0.0061 nm and the “Anti-fibrotic response in renal fibroblasts (ACTA2 expression)” value [1] was “reduced expression of ACTA2”.
